Changes are numbered by the printed parent chain.

For experiment [1], the target named is T1, KcsA-Kv1.3 T-only chimera (Streptomyces lividans, UniProt P0A334, A54D/A57S/G53D/G56T/I60S/L59F/Q58G/R52A/R64D/T61S/Y62I).
T1 construct: made in house; host or cells: E. coli XL1-Blue (pQE30)
T1 sequence (P0A334 1-160 R52A/G53D/A54D/G56T/A57S/Q58G/L59F/I60S/T61S/Y62I/R64D): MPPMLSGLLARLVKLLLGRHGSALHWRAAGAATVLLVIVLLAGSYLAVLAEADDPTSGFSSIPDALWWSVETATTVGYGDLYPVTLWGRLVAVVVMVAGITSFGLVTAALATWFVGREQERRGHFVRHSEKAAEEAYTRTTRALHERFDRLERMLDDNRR
Put plainly: Phage-binding competition assay, KcsA-Kv1.3 T-only. Also noted: species or system human Kv1.3 turret in Streptomyces lividans KcsA. The procedure:
(§1) Phage stock solutions were diluted to working concentration with phage resuspension buffer supplemented with 2 mM DDM. For protein immobilization, the following amounts were used in a final volume of 50 μl/well: wt KcsA, 0.1 μg; KcsA-Kv1.1 T-only, 0.005 μg; KcsA-Kv1.1 T+F, 0.02 μg; KcsA-Kv1.2 T-only, 0.01 μg; KcsA-Kv1.2 T+F, 0.1 μg; KcsA-Kv1.3 T-only, 0.01 μg; and KcsA-Kv1.3 T+F, 0.1 μg. Protein samples were diluted in 50 μl of storage buffer (20 mM Tris pH8.0, 300 mM KCl, 2 mM DDM) and were added to the designated wells of a Pierce Clear, 96-Well Nickel Coated Plate (15442, Thermo Fisher Scientific), then incubated for 1 h at room temperature on a horizontal shaker at 130 rpm. The plate was blocked for 1 h at room temperature with 180 μl/well TBS-BSA supplemented with 1 mM DDM. Following blocking, the wells were washed 4× with washing buffer (300 μl TBS-Tween, 0.1% v/v) using a Wellwash Versa microplate washer (Thermo Fisher Scientific); then 50 μl phage solution (in TBS-BSA-Tween, 0.1% v/v, 2 mM DDM) at determined phage concentration was added to the wells and incubated for 1 h at room temperature on a horizontal shaker. The plate was washed 4× with washing buffer, then 50 μl anti-M13 IgG HRP (MA5-36125, Invitrogen) diluted to 1:2500 in TBS-Tween (0.1% v/v) was added to the wells and incubated for 1 h at room temperature. The plate was washed again 4× with 300 μl/well washing buffer. Finally, 50 μl/well 1-Step Ultra TMB-ELISA solution (34028, Thermo Fisher Scientific) was added to the wells, and the developing signal was stopped with 50 μl 1M HCl after 5 to 10 min. The light absorbance signal was read at 450 nm with Byonoy absorbance 96 plate reader (Byonoy GmbH).
(§2) For protein immobilization, the following amounts were used in a final volume of 50 μl/well: KcsA-Kv1.1 T-only, 0.005 μg; KcsA-Kv1.1 T+F, 0.01 μg; KcsA-Kv1.2 T-only, 0.025 μg; KcsA-Kv1.2 T+F, 0.0125 μg; KcsA-Kv1.3 T-only, 0.01 μg; and KcsA-Kv1.3 T+F, 0.1 μg. Protein samples were diluted in storage buffer. Binding of given concentrations of relevant ligand-displaying phages quantified by light absorbance ([…]) were investigated in a similar manner as in phage ELISA-binding assay, while different concentrations of competing toxin test substances were applied simultaneously. The results were converted to percent inhibitions (percent displacement) of the indicator phage binding, and relative affinities of the tested toxins were assessed by plotting percent displacements against log concentrations and determining half maximal inhibitory concentrations (IC50) by sigmoidal curve fitting using “Sigmoidal dose-response (variable slope) with least squares method” algorithm in GraphPad Prism 8 using the following equation: Y=Bottom+Top−Bottom/1+10^(LogEC50−×)⋅HillSlope

Experiment [2] addresses T2, KcsA-Kv1.1 T-only chimera (Streptomyces lividans, UniProt P0A334, A54E/A57S/G53E/G56E/I60S/L59F/P55A/Q58H/R52A/R64D/T61S/Y62I).
T2 sequence (P0A334 1-160 R52A/G53E/A54E/P55A/G56E/A57S/Q58H/L59F/I60S/T61S/Y62I/R64D): T1 sequence (P0A334 1-160 R52A/G53D/A54D/G56T/A57S/Q58G/L59F/I60S/T61S/Y62I/R64D) with D53E, D54E, P55A, T56E, G58H
Put plainly: Phage-binding competition assay, KcsA-Kv1.1 T-only. Also noted: species or system human Kv1.1 turret in Streptomyces lividans KcsA. Particulars: displacement of ShK-phage; KcsA-Kv1.1 T-only 0.005 μg/well on nickel-coated plate; mean ± SD (n = 3); NQ = not quantifiable; read-out: IC50, T-only chimera (Kv1.1). Here is the method:
as §1, §2

Experiment [3] addresses T3, KcsA-Kv1.1 T-only chimera (Streptomyces lividans, UniProt P0A334, R52A/G53E/A54E/P55A/G56E/A57S/Q58H/L59F/I60S/T61S/Y62I/R64D).
T3 sequence (P0A334 1-160 R52A/G53E/A54E/P55A/G56E/A57S/Q58H/L59F/I60S/T61S/Y62I/R64D): T1 sequence (P0A334 1-160 R52A/G53D/A54D/G56T/A57S/Q58G/L59F/I60S/T61S/Y62I/R64D) with D53E, D54E, P55A, T56E, G58H
Put plainly: Phage-binding competition assay, KcsA-Kv1.1 T-only. Further details: species or system human Kv1.1 turret in Streptomyces lividans KcsA. The procedure: as §1, §2

The next experiment concerns human Kv1.1. The conditions noted are these: human Kv1.1 channel blocking, patch-clamp; read-out: IC50, Kv1.x blocking (Kv1.1); cited from earlier work.

For `CC[C@H](C)[C@H](NC(=O)[C@H](CCC(=O)O)NC(=O)[C@@H](NC(=O)CN)C(C)C)C(=O)N[C@@H](CC(N)=O)C(=O)N[C@H](C(=O)N[C@@H](CCCCN)C(=O)N[C@H]1CSSC[C@@H]2NC(=O)[C@H](CCCCN)NC(=O)CNC(=O)[C@H](Cc3ccccc3)NC(=O)[C@H](CCCNC(=N)N)NC(=O)[C@H](CCSC)NC(=O)CNC(=O)[C@H](C)NC(=O)[C@H](CC(=O)O)NC(=O)[C@H](CCCCN)NC(=O)[C@@H]3CSSC[C@@H](C(=O)N[C@H](C(=O)N4CCC[C@H]4C(=O)N[C@@H](CCCCN)C(=O)O)[C@@H](C)O)NC(=O)[C@H](Cc4c[nH]cn4)NC(=O)[C@H](CSSC[C@H](NC(=O)[C@H](CCC(N)=O)NC(=O)[C@@H]4CCCN4C(=O)[C@H](CO)NC(=O)CNC(=O)[C@H](CO)NC1=O)C(=O)N[C@@H](CC(C)C)C(=O)N[C@@H](CCCCN)C(=O)N1CCC[C@H]1C(=O)N3)NC(=O)[C@H](CCCCN)NC(=O)[C@H](CCCNC(=N)N)NC(=O)[C@H](CC(N)=O)NC(=O)[C@H](CCSC)NC2=O)C(C)C` [KTX1, Kaliotoxin-1], the IC50 (commonly the midpoint of a concentration-inhibition curve) in experiment [1] (HgTx1-phage competition, T-only KcsA-Kv1.3, value given in figure, sigmoidal fit to means of three replicates, read-out: IC50 (Fig. 6E)) was 0.416 nM; in experiment [2] it was 1.27 nM; in the experiment with human Kv1.1, 1.1 to 41 nM. Also, the “Rank, T-only chimera (Kv1.3)” value in experiment [1] (rank by competition IC50 among Vm24, HgTx1, KTX1) came to 1. In addition, in experiment [3] (ShK-phage competition, native peptide, Fig. 8E (ligand-binding pattern)), the “competition binding to KcsA-Kv1.1 T-only, in words” value is reported as “ShK > KTX1 > MTX”. Besides, in experiment [3] (rank by competition IC50 among ShK, KTX1, MTX), the “Rank, T-only chimera (Kv1.1)” value is on record as 2.

(Values after publication PMC11002876, “KcsA-Kv1.x chimeras with complete ligand-binding sites provide improved predictivity for screening selective Kv1.x blockers” (The Journal of Biological Chemistry, 2024).)
